Reference: patent publication US20200009248A1, “TARGETING TGR5 TO TREAT DISEASE” (Mayo Foundation for Medical Education and Research, priority 2014, published 2020)
“Also recorded” adds a separate entry of the source.

What was measured:
[1] = test system: control and cystic cholangiocytes; assay: cAMP production (Bridge-It cAMP assay) in cholangiocytes treated with TGR5 agonists; assay type: cell-based, rat, human; conditions: 25 μM, 30 minutes; for cAMP production: ciliated cystic cholangiocytes (PCK rat, human ADPKD)
Experimental: Production of cAMP was detected using a Bridge-It cAMP designer cAMP assay (Mediomics, St. Lou is, MO) according to manufacturer's protocol. […] Forskolin (10^−6M for 15 min) served as a control.

ADPKD cholangiocytes = assay: Three-dimensional culture of cystic cholangiocytes, cyst growth; assay type: cell-based, human; conditions: ADPKD cholangiocytes with TGR5 depleted by shRNA
From the text: Control and cystic rat cholangiocytes (derived from wild type and PCK rats, respectively), and control and cystic human cholangiocytes (derived from healthy humans and ADPKD patients, respectively) were used. Cells were isolated and maintained as described elsewhere (Masyuk et al., Hepatol 2013, 58:409-421). […] C1 and C2 were synthesized in the Sanford-Burnham Medical Research Institute at >95% purity by HPLC following a procedure outlined elsewhere (Piotrowski et al., ACS Med Chem Lett 2013, 4:63-68; and Evans et al., J Med Chem 2009, 52:7962-7965). PCK and ADPKD cholangiocytes were stably transfected with TGR5 shRNAs or control shRNAs (Santa Cruz Biotechnology, Santa Cruz, Calif.). Rodents were maintained on a standard diet and water ad lib. […]
Cultured cholangiocytes and cystic bile ducts freshly isolated by microdissection from PCK rats were grown in three-dimensional matrices as described elsewhere (Masyuk et al., Am J Pathol 2014, 184:110-121; and Masyuk et al., Am J Pathol 2004, 165:1719-1730) and treated with TLCA and OA (both, […]) daily. […] The circumferential area of each cyst was measured using ImageJ software (National Institutes of Health, Bethesda, Md.) as described elsewhere (Masyuk et al., Am J Pathol 2014, 184:110-121). Data were expressed as percent change at day 3 compared to day 1.

Gαi and Gαs proteins = assay: Western blot of Gαi and Gαs proteins in control and cystic cholangiocytes with or without OA; assay type: cell-based
Experimental: Western blotting. Briefly, proteins were separated by 4-15% SDSPAGE, transferred to nitrocellulose membranes (Bio-Rad, Hercules, Calif.), and incubated overnight at 4° C. with antibodies against TGR5 (Santa Cruz Biotechnology), Gas (Abcam, Cambridge, Mass.), and Gαi (Cell Signaling Technology, Danvers, Mass.). Actin antibody was used to assure equal protein loading. Membranes were washed and incubated for 1 hour at room temperature with the corresponding horseradish peroxidase-conjugated (Invitrogen) or IRDYE® 680 or 800 (Odyssey) secondary antibodies. Bands were visualized with the ECL Plus Western Blotting Detection kit (BD Biosciences, San Jose, Calif.) or Odyssey Li-Cor Scanner (Li-Cor, Lincoln, Nebr.).

[2] = test system: cystic bile ducts from PCK rats; assay: Three-dimensional culture of cystic bile ducts, cyst growth; assay type: cell-based, rat; conditions: 25 μm daily, day 3 vs day 1, compared to untreated
Experimental: Cultured cholangiocytes and cystic bile ducts freshly isolated by microdissection from PCK rats were grown in three-dimensional matrices as described elsewhere (Masyuk et al., Am J Pathol 2014, 184:110-121; and Masyuk et al., Am J Pathol 2004, 165:1719-1730) and treated with TLCA and OA (both, […]) daily. Images were taken at days 1 (i.e., 24 hours after seeding) and 3. The circumferential area of each cyst was measured using ImageJ software (National Institutes of Health, Bethesda, Md.) as described elsewhere (Masyuk et al., Am J Pathol 2014, 184:110-121). Data were expressed as percent change at day 3 compared to day 1.

[3] = test system: Gαi and Gαs proteins, TGR5; conditions: PCK rats in vivo, immunofluorescence
From the text: (§1) Control PCK rats (n=8) received equal doses of DMSO. Drug concentrations were adjusted to the animal weight weekly. After 6 weeks of treatment, rats were sacrificed and body and organ weights assessed. […] Hepatic and renal cystic and fibrotic areas were expressed as a percentage of total hepatic or renal parenchyma, respectively.

PCK rats = assay: Hepato-renal cystogenesis in PCK rats treated with OA for 6 weeks; assay type: in vivo; conditions: 25 mg/kg bw intraperitoneally daily; for hepato-renal cystogenesis: 25 mg/kg
From the text: as §1

[4] = ciliated control cholangiocytes (rat, human)
[5] = non-ciliated control and cystic cholangiocytes (rat, human)

SMILES	cAMP levels [1, 4]	cAMP production [1]	cAMP levels [1, 5]	growth of cystic structures in 3-D culture after TGR5 depletion (ADPKD cholangiocytes)	expression of Gαi and Gαs proteins (Gαi and Gαs proteins)	growth of cystic structures (cyst expansion) in 3-D culture [2]	expression of Gα proteins [3]	mortality or toxicity (e.g., hair or weight loss) (PCK rats)	tolerability (PCK rats)	increase of hepatic cystic areas (PCK rats; compared to control PCK rats) [%]	increase of hepatic fibrotic areas (PCK rats; compared to control PCK rats) [%]	increase of kidney weights (PCK rats; compared to control PCK rats) [%]	increase of liver weights (PCK rats; compared to control PCK rats) [%]	increase of renal cystic areas (PCK rats; compared to control PCK rats) [%]	increase of renal fibrotic areas (PCK rats; compared to control PCK rats) [%]	hepato-renal cystogenesis (PCK rats; listed as Oleanolic Acid)	hepato-renal cystogenesis (PCK rats; listed as oleanolic acid)
CCNc1nc2c(c(C(N)=O)n1)CN(C(=O)CCc1ccc(OC(F)(F)F)cc1)CC2 [C1, 2-(ethylamino)-6-(3-(4-(trifluoromethoxy)phenyl)propanoyl)-5,6,7,8-tetrahydropyrido[4,3-d]pyrimidine-4-carbox-amide]	decreased cAMP levels	increasing cAMP production	elevated cAMP	–	–	–	–	–	–	–	–	–	–	–	–	–	–
Cc1onc(-c2ccccc2Cl)c1C(=O)N(C)c1ccc(Cl)cc1 [C2, 3-(2-chlorophenyl)-N-(4-chlorophenyl)-N,5-dimethylisoxazole-4-carboxamide]	decreased cAMP levels	increasing cAMP production	elevated cAMP	–	–	–	–	–	–	–	–	–	–	–	–	–	–
CC1(C)CC[C@]2(C(=O)O)CC[C@]3(C)C(=CC[C@@H]4[C@@]5(C)CC[C@H](O)C(C)(C)[C@@H]5CC[C@]43C)[C@@H]2C1 [OA, oleanolic acid]	decreased cAMP levels	increasing cAMP production	elevated cAMP	abolished the effects	no effects; also recorded: did not affect	accelerated cyst expansion	does not affect	no mortality or toxicity	well tolerated	31	20	11	12	19	30	Increases	increases
